One assay concerns the target T1, CDK2/cyclinA (Homo sapiens, UniProt P24941).
T1 construct: purchased Millipore
The assay is described as follows: CDK2/cyclinA kinase assay, IMAP fluorescence polarization. The assay is classed as biochemical. How it is done:
Kinase assays were performed on recombinant purified enzymes using the non-radioactive IMAP fluorescence polarization assay format.
Compound stocks were prepared and diluted in DMSO and were added to kinase reactions at a 1/100 dilution for a final concentration of 1% DMSO. The components were added together to final concentrations listed in the tables below and incubated for two hours at room temperature.
The reactions were stopped by addition of stop solution.
CDK2: final stop concentration is 1× Developer buffer (100% A), IMAP beads 1/400
The samples were allowed to incubate for one more hour at room temperature and then the fluorescence polarization was measured. The plate normalized millipolarization (mP) values were plotted against the log of compound concentration for each compound and IC50 values were calculated using the spotfire IC50 calculator and confirmed by visual analysis.
(In fluorescence polarisation assays a small probe gives low polarisation when free and higher when bound to something large.)

The next assay deals with T2, CDK1/cyclinB (Homo sapiens, UniProt P06493).
T2 construct: purchased Millipore
T2 sequence (P06493 whole entry): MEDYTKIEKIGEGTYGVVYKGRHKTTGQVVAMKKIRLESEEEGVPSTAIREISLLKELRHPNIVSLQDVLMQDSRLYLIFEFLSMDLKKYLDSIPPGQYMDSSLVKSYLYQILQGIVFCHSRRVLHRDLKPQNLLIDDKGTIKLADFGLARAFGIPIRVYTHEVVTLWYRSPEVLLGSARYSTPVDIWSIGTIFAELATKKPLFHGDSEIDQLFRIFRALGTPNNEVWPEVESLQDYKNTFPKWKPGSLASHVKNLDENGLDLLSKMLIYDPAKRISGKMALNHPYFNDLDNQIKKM
T2 sequence (P14635 whole entry partner): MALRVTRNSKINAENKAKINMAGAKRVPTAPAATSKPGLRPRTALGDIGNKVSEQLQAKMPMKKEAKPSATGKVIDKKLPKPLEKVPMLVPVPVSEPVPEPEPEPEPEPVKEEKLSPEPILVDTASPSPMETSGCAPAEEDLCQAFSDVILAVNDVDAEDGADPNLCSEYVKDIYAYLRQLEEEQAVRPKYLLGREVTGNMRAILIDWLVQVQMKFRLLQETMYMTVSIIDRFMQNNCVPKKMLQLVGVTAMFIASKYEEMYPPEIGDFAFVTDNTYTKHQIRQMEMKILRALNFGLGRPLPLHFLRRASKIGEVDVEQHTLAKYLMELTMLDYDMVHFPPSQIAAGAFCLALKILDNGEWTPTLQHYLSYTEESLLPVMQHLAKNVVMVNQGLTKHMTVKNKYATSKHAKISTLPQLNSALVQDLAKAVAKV
The assay is described as follows: CDK1/cyclinB kinase assay, IMAP fluorescence polarization. The assay is classed as biochemical. Summed up: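 IMAP fluorescence polarization assay on recombinant purified enzyme, compounds at final 1% DMSO. Reaction run 2 h at room temperature, stopped, held 1 h more before reading polarization.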

For a further assay, the target named is T3, CDK9/cyclinT1 (Homo sapiens, UniProt P50750).
T3 construct: purchased Millipore
T3 sequence (P50750 whole entry): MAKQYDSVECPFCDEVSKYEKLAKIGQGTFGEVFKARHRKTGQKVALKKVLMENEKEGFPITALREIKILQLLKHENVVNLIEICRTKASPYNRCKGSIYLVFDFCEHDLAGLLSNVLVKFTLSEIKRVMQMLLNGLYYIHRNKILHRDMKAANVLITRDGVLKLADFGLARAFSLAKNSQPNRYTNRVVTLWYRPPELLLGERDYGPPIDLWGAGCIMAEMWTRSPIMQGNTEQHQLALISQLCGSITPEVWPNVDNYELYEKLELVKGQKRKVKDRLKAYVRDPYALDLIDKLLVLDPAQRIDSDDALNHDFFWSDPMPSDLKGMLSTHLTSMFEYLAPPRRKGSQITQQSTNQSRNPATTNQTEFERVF
T3 sequence (O60563 whole entry partner): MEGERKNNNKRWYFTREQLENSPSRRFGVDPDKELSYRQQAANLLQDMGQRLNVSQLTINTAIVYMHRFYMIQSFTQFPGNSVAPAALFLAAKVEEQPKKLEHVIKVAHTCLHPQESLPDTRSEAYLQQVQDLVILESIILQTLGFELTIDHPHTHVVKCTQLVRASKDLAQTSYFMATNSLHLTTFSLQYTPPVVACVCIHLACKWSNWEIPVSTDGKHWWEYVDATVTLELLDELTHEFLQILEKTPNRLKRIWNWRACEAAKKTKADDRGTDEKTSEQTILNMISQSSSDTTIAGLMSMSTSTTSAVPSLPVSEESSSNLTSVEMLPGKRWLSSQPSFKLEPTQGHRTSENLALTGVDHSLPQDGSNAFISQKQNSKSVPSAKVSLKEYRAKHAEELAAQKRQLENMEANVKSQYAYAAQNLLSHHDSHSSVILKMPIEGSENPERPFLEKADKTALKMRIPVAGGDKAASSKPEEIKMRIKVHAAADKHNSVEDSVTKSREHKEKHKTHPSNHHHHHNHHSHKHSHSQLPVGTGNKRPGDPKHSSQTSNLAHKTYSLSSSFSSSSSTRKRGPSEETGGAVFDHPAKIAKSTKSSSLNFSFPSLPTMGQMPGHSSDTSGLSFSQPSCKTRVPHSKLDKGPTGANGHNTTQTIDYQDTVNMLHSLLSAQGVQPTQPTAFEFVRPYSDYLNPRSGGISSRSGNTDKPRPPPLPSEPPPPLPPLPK
The assay is described as follows: CDK9/cyclinT1 kinase assay, IMAP fluorescence polarization. In kind it is biochemical. Summed up: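 Recombinant purified enzyme complexes assayed by IMAP fluorescence polarization with 1% final DMSO, 2 h at room temperature; stopped with 1× Developer buffer (85% A/15% B) plus IMAP beads 1/400, then 1 h further at room temperature. IC50 from normalized mP versus log compound concentration.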

For assay [1], the system named is RNA Polymerase II CTD Serine2 Phosphorylation. The assay is described as follows: H5 (Ser2) Ab High Content Screen: RNA Polymerase II CTD Serine2 Phosphorylation Assay in Hep3B cells. In kind it is cell-based. As to conditions: Homo sapiens, 2 hours with compound, H5 antibody staining. Here is the method:
H5 (also referred as Ser2) Ab High Content Screen: RNA Polymerase II CTD Serine2 Phosphorylation Assay
1. Cells are plated into 384 well plates: 30 μl of Hep3B cells (4,000 cells/30 μl) in DMEM with 3% FBS are plated into wells of a tissue culture treated clear bottomed 384 well plate. Cells are allowed to adhere during an overnight incubation.
2. Cells are treated with compounds for two hours: 10 μl of DMEM with 3% FBS is added to each well with a final concentration of DMSO equal to 1%. Cells are incubated with compounds for 2 hours.
3. Cells are fixed and permeabilized. Cells are washed with 30 mM HEPES pH=7.3 then fixed in 4% paraformaldehyde in 30 mM HEPES pH=7.3 for one hour at room temperature. The fix is removed by washing the cells with Tris buffered saline (TBS) and the cells are permeabilized by incubation in TBS with 0.5% triton X-100 for 30 minutes at room temperature. Triton is removed by washing the cells with TBS.
4. […] Incubate primary H5 Ab (1/250 ) overnight at 4 degrees in TBS with 1% BSA and 0.1% Tween-20. The next day wash cells with TBS. […] Wash cells with PBS.
5. Measure staining using the In-cell Analyzer system from GE Healthcare.

The target of a further assay is CDK5 (Homo sapiens, UniProt Q00535). The assay is described as follows: CDK5 kinase assay (Table F). The assay is classed as biochemical.
Chain of CDK5 (Q00535 whole entry, species assumed): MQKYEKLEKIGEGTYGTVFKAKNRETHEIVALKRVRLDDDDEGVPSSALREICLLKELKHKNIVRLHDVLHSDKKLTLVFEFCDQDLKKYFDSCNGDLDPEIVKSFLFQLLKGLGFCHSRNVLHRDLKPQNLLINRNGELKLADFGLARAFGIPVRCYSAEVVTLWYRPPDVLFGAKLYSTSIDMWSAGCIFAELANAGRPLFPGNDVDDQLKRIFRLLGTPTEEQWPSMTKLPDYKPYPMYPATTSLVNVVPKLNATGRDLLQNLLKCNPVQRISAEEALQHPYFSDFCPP
Chain of CDK5 (Q15078 whole entry partner, species assumed): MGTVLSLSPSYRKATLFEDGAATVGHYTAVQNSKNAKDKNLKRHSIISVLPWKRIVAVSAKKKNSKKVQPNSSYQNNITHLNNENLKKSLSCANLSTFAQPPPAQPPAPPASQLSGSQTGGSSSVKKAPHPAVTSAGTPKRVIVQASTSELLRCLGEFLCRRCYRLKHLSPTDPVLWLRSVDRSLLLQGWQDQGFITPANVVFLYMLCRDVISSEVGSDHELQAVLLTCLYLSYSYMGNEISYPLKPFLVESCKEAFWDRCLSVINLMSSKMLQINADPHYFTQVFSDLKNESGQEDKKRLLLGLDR
The next assay has as its target CDK4 (Homo sapiens, UniProt P11802). The assay is described as follows: CDK4 kinase assay (Table F). In kind it is biochemical.

Like-named read-outs stand apart in the source and are kept apart here. Some results are limits rather than exact numbers.

Chain of CDK4 (P11802 whole entry, species assumed): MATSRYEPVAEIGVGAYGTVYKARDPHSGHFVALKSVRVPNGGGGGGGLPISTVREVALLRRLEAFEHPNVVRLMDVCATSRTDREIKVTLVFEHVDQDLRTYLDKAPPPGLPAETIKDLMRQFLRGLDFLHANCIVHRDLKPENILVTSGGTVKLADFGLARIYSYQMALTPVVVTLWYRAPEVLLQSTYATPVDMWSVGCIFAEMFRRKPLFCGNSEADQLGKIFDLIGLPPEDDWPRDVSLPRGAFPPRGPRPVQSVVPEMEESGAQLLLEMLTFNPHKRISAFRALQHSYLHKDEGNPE
Chain of CDK4 (P24385 whole entry partner, species assumed): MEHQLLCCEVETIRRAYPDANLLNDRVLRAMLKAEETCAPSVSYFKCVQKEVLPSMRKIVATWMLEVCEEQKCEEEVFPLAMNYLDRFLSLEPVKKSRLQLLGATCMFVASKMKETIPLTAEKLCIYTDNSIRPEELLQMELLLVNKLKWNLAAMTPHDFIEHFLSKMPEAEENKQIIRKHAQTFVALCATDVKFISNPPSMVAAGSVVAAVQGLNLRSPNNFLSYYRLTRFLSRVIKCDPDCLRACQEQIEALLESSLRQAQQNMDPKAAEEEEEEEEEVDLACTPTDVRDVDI

As a reminder, the IC50 is the concentration that gives 50% inhibition. Consider `Cc1c(-c2ccnc(Nc3cccc(Cl)c3)n2)ccnc1Cl` [Compound 2, [4-(2-Chloro-3-methyl-pyridin-4-yl)-pyrimidin-2-yl]-(3-chloro-phenyl)-amine], for which the IC50 against CDK2/cyclinA is over 50 µM; at CDK1/cyclinB (read-out: CDK1 IC50) it was over 50 µM; against CDK9/cyclinT1 it was under 5 µM; in assay [1], over 50 µM.
As to `Cc1c(-c2ccnc(Nc3cccc(Cl)c3)n2)ccnc1NCc1ccccc1` [Compound 21, [4-(2-Benzylamino-3-methyl-pyridin-4-yl)-pyrimidin-2-yl]-(3-chloro-phenyl)-amine], the IC50 is under 5 µM against CDK2/cyclinA, under 5 µM at CDK1/cyclinB (read-out: CDK1 IC50), under 5 µM against CDK9/cyclinT1 and 5 to 15 µM in assay [1].
In the case of `Cc1c(-c2ccnc(Nc3cccc(Cl)c3)n2)ccnc1NCCCN1CCOCC1` [Compound 22, (3-Chloro-phenyl)-{4-[3-methyl-2-(3-morpholin-4-yl-propylamino)-pyridin-4-yl]-pyrimidin-2-yl}-amine], the IC50 on CDK2/cyclinA is under 5 µM; on CDK1/cyclinB (read-out: CDK1 IC50), 5 to 15 µM; on CDK9/cyclinT1, under 5 µM; in assay [1], 5 to 15 µM.
For the compound `Cc1c(-c2ccnc(Nc3cccc(Cl)c3)n2)ccnc1NCCCn1ccnc1` [Compound 23, (3-Chloro-phenyl)-{4-[2-(3-imidazol-1-yl-propylamino)-3-methyl-pyridin-4-yl]-pyrimidin-2-yl}-amine], the concentration for half-maximal inhibition (IC50) against CDK5 was under 5 µM; against CDK4, 15 to 50 µM; against CDK2/cyclinA, under 5 µM; at CDK1/cyclinB (read-out: CDK1 IC50), 5 to 15 µM; against CDK9/cyclinT1 it was under 5 µM; in assay [1] it was 5 to 15 µM.
For `Cc1c(-c2ccnc(Nc3cccc(Cl)c3)n2)ccnc1NCCCN1CCCC1=O` [Compound 24, 1-(3-{4-[2-(3-Chloro-phenylamino)-pyrimidin-4-yl]-3-methyl-pyridin-2-ylamino}-propyl)-pyrrolidin-2-one], the concentration for half-maximal inhibition (IC50) was 5 to 15 µM against CDK5; under 5 µM on CDK2/cyclinA; 5 to 15 µM on CDK1/cyclinB (read-out: CDK1 IC50); under 5 µM against CDK9/cyclinT1; 15 to 50 µM in assay [1].
Consider `CC(=O)NCCCNc1cc(-c2ccnc(Nc3cccc(Cl)c3)n2)cc(C)n1` [Compound 42, N-(3-{4-[2-(3-Chloro-phenylamino)-pyrimidin-4-yl]-6-methyl-pyridin-2-ylamino}-propyl)-acetamide], for which the IC50 (against CDK2/cyclinA; at CDK1/cyclinB (read-out: CDK1 IC50); against CDK9/cyclinT1; in assay [1]) was under 5 µM in each case.
On to `Clc1cccc(Nc2nccc(-c3ccnc4ccccc34)n2)c1` [Compound 48, (3-Chloro-phenyl)-(4-quinolin-4-yl-pyrimidin-2-yl)-amine], for which the IC50 is under 5 µM at CDK5; 5 to 15 µM against CDK4; under 5 µM at CDK1/cyclinB (read-out: CDK1 IC50); under 5 µM on CDK9/cyclinT1; under 5 µM in assay [1].
As for `CS(=O)(=O)c1cccc(Nc2nccc(-c3cccnc3NCCCN)n2)c1` [Compound 58, N-{3-[2-(3-Methanesulfonyl-phenylamino)-pyrimidin-4-yl]-pyridin-2-yl}-propane-1,3-diamine], the IC50 (on CDK5; against CDK4; against CDK2/cyclinA; on CDK1/cyclinB (read-out: CDK1 IC50); on CDK9/cyclinT1; in assay [1]) was under 5 µM throughout.
With `NCCCNc1ncccc1-c1ccnc(Nc2cccc(S(N)(=O)=O)c2)n1` [Compound 59, 3-{4-[2-(3-Amino-propylamino)-pyridin-3-yl]-pyrimidin-2-ylamino}-benzenesulfonamide], the IC50 against CDK5 is under 5 µM; on CDK4 it was 5 to 15 µM; on CDK2/cyclinA, under 5 µM; at CDK1/cyclinB (read-out: CDK1 IC50), under 5 µM; on CDK9/cyclinT1, under 5 µM; in assay [1], 15 to 50 µM.
With `CC(=O)NCCCNc1ncccc1-c1ccnc(Nc2cccc(Cl)c2)n1` [Compound 65, N-(3-{3-[2-(3-Chloro-phenylamino)-pyrimidin-4-yl]-pyridin-2-ylamino}-propyl)-acetamide], the IC50 at CDK5 was under 5 µM; against CDK4, 15 to 50 µM; against CDK2/cyclinA, under 5 µM; at CDK1/cyclinB (read-out: CDK1 IC50) it was under 5 µM; against CDK9/cyclinT1 it was under 5 µM; in assay [1] it was under 5 µM.
Consider `CS(=O)(=O)NCCCNc1ncccc1-c1ccnc(Nc2cccc(Cl)c2)n1` [Compound 72, N-(3-{3-[2-(3-Chloro-phenylamino)-pyrimidin-4-yl]-pyridin-2-ylamino}-propyl)-methanesulfonamide], for which the IC50 is under 5 µM on CDK5; 15 to 50 µM against CDK4; under 5 µM at CDK2/cyclinA; under 5 µM on CDK1/cyclinB (read-out: CDK1 IC50); under 5 µM against CDK9/cyclinT1; under 5 µM in assay [1].
`CC(=O)NCC(C)(C)CNc1ncccc1-c1ccnc(Nc2cccc(Cl)c2)n1` [Compound 73, N-(3-{3-[2-(3-Chloro-phenylamino)-pyrimidin-4-yl]-pyridin-2-ylamino}-2,2-dimethyl-propyl)-acetamide]: the IC50 was 5 to 15 µM against CDK5; 15 to 50 µM on CDK4; under 5 µM against CDK2/cyclinA; under 5 µM at CDK1/cyclinB (read-out: CDK1 IC50); under 5 µM on CDK9/cyclinT1; 5 to 15 µM in assay [1].
In the case of `CCCCNS(=O)(=O)c1cccc(Nc2nccc(-c3cccnc3OC)n2)c1` [Compound 102, N-Butyl-3-[4-(2-methoxy-pyridin-3-yl)-pyrimidin-2-ylamino]-benzenesulfonamide], the IC50 at CDK2/cyclinA was under 5 µM; on CDK1/cyclinB (read-out: CDK1 IC50), under 5 µM; against CDK9/cyclinT1, under 5 µM; in assay [1], 15 to 50 µM.
On to `COc1ncccc1-c1ccnc(Nc2cccc(-c3cnco3)c2)n1` [Compound 110, [4-(2-Methoxy-pyridin-3-yl)-pyrimidin-2-yl]-(3-oxazol-5-yl-phenyl)-amine], for which the IC50 (against CDK2/cyclinA; at CDK1/cyclinB (read-out: CDK1 IC50); at CDK9/cyclinT1; in assay [1]) was under 5 µM each time.
For the compound `COc1ncccc1-c1ccnc(Nc2ccc3cn[nH]c3c2)n1` [Compound 112, (1H-Indazol-6-yl)-[4-(2-methoxy-pyridin-3-yl)-pyrimidin-2-yl]-amine], the 50% inhibitory concentration (IC50) (on CDK2/cyclinA; on CDK1/cyclinB; on CDK9/cyclinT1; in assay [1]) was under 5 µM throughout.
`COc1ncccc1-c1ccnc(Nc2ccc(N3CCN(C)CC3)cc2)n1` [Compound 117, [4-(2-Methoxy-pyridin-3-yl)-pyrimidin-2-yl]-[4-(4-methyl-piperazin-1-yl)-phenyl]-amine]: the IC50 at CDK5 is under 5 µM; on CDK4 it was under 5 µM; against CDK2/cyclinA, under 5 µM; on CDK1/cyclinB (read-out: CDK1 IC50), 5 to 15 µM; against CDK9/cyclinT1 it was under 5 µM.
`NCCCOc1ncccc1-c1ccnc(Nc2cccc(Cl)c2)n1` [Compound 120, {4-[2-(3-Amino-propoxy)-pyridin-3-yl]-pyrimidin-2-yl}-(3-chloro-phenyl)-amine]: the 50% inhibitory concentration (IC50) against CDK5 is under 5 µM; at CDK4, 15 to 50 µM; against CDK2/cyclinA it was 15 to 50 µM; on CDK1/cyclinB (read-out: CDK1 IC50) it was under 5 µM; on CDK9/cyclinT1 it was under 5 µM.
For the compound `CC(=O)NCCCOc1ncccc1-c1ccnc(Nc2cccc(Cl)c2)n1` [Compound 121, N-(3-{3-[2-(3-Chloro-phenylamino)-pyrimidin-4-yl]-pyridin-2-yloxy}-propyl)-acetamide], the IC50 at CDK5 was 15 to 50 µM; on CDK4 it was 15 to 50 µM; at CDK2/cyclinA it was 15 to 50 µM; on CDK1/cyclinB (read-out: CDK1 IC50) it was 5 to 15 µM; against CDK9/cyclinT1, under 5 µM.

For the origin of these results see patent publication US20100048597A1 (Novartis AG, priority 2006, published 2010).
